# In BigSolDB 2.1:
smiles,measurement,setting,value
CC(C)(C)[C@H](O)[C@H](Cc1ccc(Cl)cc1)n1cncn1 (racemic),solubility (mole fraction),"in 1,4-dioxane, 278.15 K",0.0156
same,solubility (mole fraction),"in 1,4-dioxane, 280.65 K",0.0168
same,solubility (mole fraction),"in 1,4-dioxane, 283.15 K",0.0183
same,solubility (mole fraction),"in 1,4-dioxane, 285.65 K",0.0203
same,solubility (mole fraction),"in 1,4-dioxane, 288.15 K",0.0223
same,solubility (mole fraction),"in 1,4-dioxane, 290.65 K",0.0248
same,solubility (mole fraction),"in 1,4-dioxane, 293.15 K",0.0271
same,solubility (mole fraction),"in 1,4-dioxane, 295.65 K",0.0296
same,solubility (mole fraction),"in 1,4-dioxane, 298.15 K",0.0324
same,solubility (mole fraction),"in 1,4-dioxane, 300.65 K",0.0351
same,solubility (mole fraction),"in 1,4-dioxane, 303.15 K",0.0381
same,solubility (mole fraction),"in 1,4-dioxane, 305.65 K",0.0412
same,solubility (mole fraction),"in 1,4-dioxane, 308.15 K",0.044
same,solubility (mole fraction),"in 1,4-dioxane, 310.65 K",0.0475
same,solubility (mole fraction),"in 1,4-dioxane, 313.15 K",0.0512
same,solubility (mole fraction),"in 1,4-dioxane, 315.65 K",0.0551
same,solubility (mole fraction),"in 1,4-dioxane, 318.15 K",0.0593
same,solubility (mole fraction),"in acetone, 278.15 K",0.0135
same,solubility (mole fraction),"in acetone, 280.65 K",0.0145
same,solubility (mole fraction),"in acetone, 283.15 K",0.0155
same,solubility (mole fraction),"in acetone, 285.65 K",0.0167
same,solubility (mole fraction),"in acetone, 288.15 K",0.0181
same,solubility (mole fraction),"in acetone, 290.65 K",0.0194
same,solubility (mole fraction),"in acetone, 293.15 K",0.0209
same,solubility (mole fraction),"in acetone, 295.65 K",0.0223
same,solubility (mole fraction),"in acetone, 298.15 K",0.0239
same,solubility (mole fraction),"in acetone, 300.65 K",0.0253
same,solubility (mole fraction),"in acetone, 303.15 K",0.0269
same,solubility (mole fraction),"in acetone, 305.65 K",0.0284
same,solubility (mole fraction),"in acetone, 308.15 K",0.0301
same,solubility (mole fraction),"in acetone, 310.65 K",0.0317
same,solubility (mole fraction),"in acetone, 313.15 K",0.0335
same,solubility (mole fraction),"in acetone, 315.65 K",0.0353
same,solubility (mole fraction),"in acetone, 318.15 K",0.0372
same,solubility (mole fraction),"in acetonitrile, 278.15 K",0.00239
same,solubility (mole fraction),"in acetonitrile, 280.65 K",0.00267
same,solubility (mole fraction),"in acetonitrile, 283.15 K",0.00295
same,solubility (mole fraction),"in acetonitrile, 285.65 K",0.00331
same,solubility (mole fraction),"in acetonitrile, 288.15 K",0.00366
same,solubility (mole fraction),"in acetonitrile, 290.65 K",0.00405
same,solubility (mole fraction),"in acetonitrile, 293.15 K",0.00449
same,solubility (mole fraction),"in acetonitrile, 295.65 K",0.00495
same,solubility (mole fraction),"in acetonitrile, 298.15 K",0.00544
same,solubility (mole fraction),"in acetonitrile, 300.65 K",0.00596
same,solubility (mole fraction),"in acetonitrile, 303.15 K",0.00653
same,solubility (mole fraction),"in acetonitrile, 305.65 K",0.00709
same,solubility (mole fraction),"in acetonitrile, 308.15 K",0.00776
same,solubility (mole fraction),"in acetonitrile, 310.65 K",0.00846
same,solubility (mole fraction),"in acetonitrile, 313.15 K",0.00916
same,solubility (mole fraction),"in acetonitrile, 315.65 K",0.01
same,solubility (mole fraction),"in acetonitrile, 318.15 K",0.011
same,solubility (mole fraction),"in ethanol, 278.15 K",0.00749
same,solubility (mole fraction),"in ethanol, 280.65 K",0.0081
same,solubility (mole fraction),"in ethanol, 283.15 K",0.00885
same,solubility (mole fraction),"in ethanol, 285.65 K",0.00979
same,solubility (mole fraction),"in ethanol, 288.15 K",0.0107
same,solubility (mole fraction),"in ethanol, 290.65 K",0.0117
same,solubility (mole fraction),"in ethanol, 293.15 K",0.0128
same,solubility (mole fraction),"in ethanol, 295.65 K",0.0138
same,solubility (mole fraction),"in ethanol, 298.15 K",0.0149
same,solubility (mole fraction),"in ethanol, 300.65 K",0.016
same,solubility (mole fraction),"in ethanol, 303.15 K",0.0173
same,solubility (mole fraction),"in ethanol, 305.65 K",0.0185
same,solubility (mole fraction),"in ethanol, 308.15 K",0.02
same,solubility (mole fraction),"in ethanol, 310.65 K",0.0214
same,solubility (mole fraction),"in ethanol, 313.15 K",0.0229
same,solubility (mole fraction),"in ethanol, 315.65 K",0.0246
same,solubility (mole fraction),"in ethanol, 318.15 K",0.0265
same,solubility (mole fraction),"in ethyl acetate, 278.15 K",0.00783
same,solubility (mole fraction),"in ethyl acetate, 280.65 K",0.00895
same,solubility (mole fraction),"in ethyl acetate, 283.15 K",0.0104
same,solubility (mole fraction),"in ethyl acetate, 285.65 K",0.0118
same,solubility (mole fraction),"in ethyl acetate, 288.15 K",0.0133
same,solubility (mole fraction),"in ethyl acetate, 290.65 K",0.0153
same,solubility (mole fraction),"in ethyl acetate, 293.15 K",0.0175
same,solubility (mole fraction),"in ethyl acetate, 295.65 K",0.0201
same,solubility (mole fraction),"in ethyl acetate, 298.15 K",0.0228
same,solubility (mole fraction),"in ethyl acetate, 300.65 K",0.0255
same,solubility (mole fraction),"in ethyl acetate, 303.15 K",0.029
same,solubility (mole fraction),"in ethyl acetate, 305.65 K",0.0324
same,solubility (mole fraction),"in ethyl acetate, 308.15 K",0.0359
same,solubility (mole fraction),"in ethyl acetate, 310.65 K",0.0395
same,solubility (mole fraction),"in ethyl acetate, 313.15 K",0.0444
same,solubility (mole fraction),"in ethyl acetate, 315.65 K",0.0497
same,solubility (mole fraction),"in ethyl acetate, 318.15 K",0.0552
same,solubility (mole fraction),"in isopropanol, 278.15 K",0.00707
same,solubility (mole fraction),"in isopropanol, 280.65 K",0.00766
same,solubility (mole fraction),"in isopropanol, 283.15 K",0.00835
same,solubility (mole fraction),"in isopropanol, 285.65 K",0.00912
same,solubility (mole fraction),"in isopropanol, 288.15 K",0.00985
same,solubility (mole fraction),"in isopropanol, 290.65 K",0.0108
same,solubility (mole fraction),"in isopropanol, 293.15 K",0.0117
same,solubility (mole fraction),"in isopropanol, 295.65 K",0.0127
same,solubility (mole fraction),"in isopropanol, 298.15 K",0.0138
same,solubility (mole fraction),"in isopropanol, 300.65 K",0.0149
same,solubility (mole fraction),"in isopropanol, 303.15 K",0.0161
same,solubility (mole fraction),"in isopropanol, 305.65 K",0.0173
same,solubility (mole fraction),"in isopropanol, 308.15 K",0.0185
same,solubility (mole fraction),"in isopropanol, 310.65 K",0.0197
same,solubility (mole fraction),"in isopropanol, 313.15 K",0.021
same,solubility (mole fraction),"in isopropanol, 315.65 K",0.0225
same,solubility (mole fraction),"in isopropanol, 318.15 K",0.0242
same,solubility (mole fraction),"in n-butanol, 278.15 K",0.0134
same,solubility (mole fraction),"in n-butanol, 280.65 K",0.0141
same,solubility (mole fraction),"in n-butanol, 283.15 K",0.0151
same,solubility (mole fraction),"in n-butanol, 285.65 K",0.0162
same,solubility (mole fraction),"in n-butanol, 288.15 K",0.0173
same,solubility (mole fraction),"in n-butanol, 290.65 K",0.0184
same,solubility (mole fraction),"in n-butanol, 293.15 K",0.0198
same,solubility (mole fraction),"in n-butanol, 295.65 K",0.0211
same,solubility (mole fraction),"in n-butanol, 298.15 K",0.0224
same,solubility (mole fraction),"in n-butanol, 300.65 K",0.0238
same,solubility (mole fraction),"in n-butanol, 303.15 K",0.0251
same,solubility (mole fraction),"in n-butanol, 305.65 K",0.0266
same,solubility (mole fraction),"in n-butanol, 308.15 K",0.0279
same,solubility (mole fraction),"in n-butanol, 310.65 K",0.0295
same,solubility (mole fraction),"in n-butanol, 313.15 K",0.0308
same,solubility (mole fraction),"in n-butanol, 315.65 K",0.0324
same,solubility (mole fraction),"in n-butanol, 318.15 K",0.0341
same,solubility (mole fraction),"in n-propanol, 278.15 K",0.0124
same,solubility (mole fraction),"in n-propanol, 280.65 K",0.0131
same,solubility (mole fraction),"in n-propanol, 283.15 K",0.0139
same,solubility (mole fraction),"in n-propanol, 285.65 K",0.0146
same,solubility (mole fraction),"in n-propanol, 288.15 K",0.0155
same,solubility (mole fraction),"in n-propanol, 290.65 K",0.0163
same,solubility (mole fraction),"in n-propanol, 293.15 K",0.0172
same,solubility (mole fraction),"in n-propanol, 295.65 K",0.0182
same,solubility (mole fraction),"in n-propanol, 298.15 K",0.0192
same,solubility (mole fraction),"in n-propanol, 300.65 K",0.0203
same,solubility (mole fraction),"in n-propanol, 303.15 K",0.0215
same,solubility (mole fraction),"in n-propanol, 305.65 K",0.0228
same,solubility (mole fraction),"in n-propanol, 308.15 K",0.0241
same,solubility (mole fraction),"in n-propanol, 310.65 K",0.0253
same,solubility (mole fraction),"in n-propanol, 313.15 K",0.0265
same,solubility (mole fraction),"in n-propanol, 315.65 K",0.0278
same,solubility (mole fraction),"in n-propanol, 318.15 K",0.0291
same,solubility (mole fraction),"in toluene, 278.15 K",0.0416
same,solubility (mole fraction),"in toluene, 280.65 K",0.0426
same,solubility (mole fraction),"in toluene, 283.15 K",0.0437
same,solubility (mole fraction),"in toluene, 285.65 K",0.045
same,solubility (mole fraction),"in toluene, 288.15 K",0.0462
same,solubility (mole fraction),"in toluene, 290.65 K",0.0473
same,solubility (mole fraction),"in toluene, 293.15 K",0.0484
same,solubility (mole fraction),"in toluene, 295.65 K",0.0496
same,solubility (mole fraction),"in toluene, 298.15 K",0.0508
same,solubility (mole fraction),"in toluene, 300.65 K",0.0521
same,solubility (mole fraction),"in toluene, 303.15 K",0.0533
same,solubility (mole fraction),"in toluene, 305.65 K",0.0546
same,solubility (mole fraction),"in toluene, 308.15 K",0.0557
same,solubility (mole fraction),"in toluene, 310.65 K",0.057
same,solubility (mole fraction),"in toluene, 313.15 K",0.0584
same,solubility (mole fraction),"in toluene, 315.65 K",0.0597
same,solubility (mole fraction),"in toluene, 318.15 K",0.061
